{
  "source": "patent US10131648B2",
  "about": "“Substituted benzothiophenyl derivatives as GPR40 agonists for the treatment of type II diabetes” (Janssen Pharmaceutica NV, priority 2014, dated 2018)",
  "data": [
    {"target": "human GPR40 (Homo sapiens (Human), UniProt O14842)", "sequence (O14842 whole entry)": "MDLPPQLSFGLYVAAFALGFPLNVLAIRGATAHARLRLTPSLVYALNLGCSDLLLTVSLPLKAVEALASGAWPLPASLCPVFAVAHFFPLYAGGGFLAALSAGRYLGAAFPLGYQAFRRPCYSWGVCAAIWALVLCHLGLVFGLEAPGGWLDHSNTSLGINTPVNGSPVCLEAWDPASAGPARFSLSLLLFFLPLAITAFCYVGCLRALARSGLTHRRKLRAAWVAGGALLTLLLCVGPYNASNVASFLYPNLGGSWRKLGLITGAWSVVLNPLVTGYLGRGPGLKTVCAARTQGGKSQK", "assay": "GPR40 Calcium Flux Assay", "format": "cell-based", "details": "transfected HEK293 cells stably expressing human GPR40; Ca2+ mobilization; mean data; read-out: hGPR40 Ca^2+ Assay EC50", "method": "Compounds were tested in a calcium flux assay using transfected HEK293 cells stably expressing either human GPR40 or rat GPR40. Human GPR40 expressing cells were cultured in DMEM-High Glucose media supplemented with 10% fetal bovine serum, 1×L-Glutamine, 1×Penicillin/Streptomycin and 500 μg/mL G418. Rat GPR40 expressing cells were cultured in DMEM-High Glucose media supplemented with 10% fetal bovine serum and 1 μg/mL puromycin. Cells were plated into poly-D-lysine coated 384-well plates and cultured overnight in a 37° C. humidified tissue culture incubator under 5% CO2/[…] atmosphere. On the day of the experiment, the culture media was replaced with assay buffer (HBSS, 20 mM HEPES, 0.1% BSA) and the cells incubated at 37° C. for 1 h. Calcium-sensitive fluorescent dye (Fluo 8 No-Wash Calcium Dye, ABD Bioquest) was then added and the cells incubated for another 30 min at 37° C. followed by 15 min at room temperature while protected from the light. The cell plate and a plate of diluted compounds of Formula (I) were loaded into a fluorescent plate reader that added compounds onto the cells while measuring the fluorescence intensity of each well. The plate reader recorded fluorescence intensity at 1 second intervals for 8 min and provided the data for analysis in an Excel format. EC50 values were calculated using Prism (GraphPad) software.", "units": {"EC50": "nM"}, "values": [
      {"smiles": "Cc1cc(OC2CCS(=O)(=O)CC2)ccc1-c1csc2ccc(COc3ccc(C4(CC(=O)O)CC(=O)C4)cc3)cc12", "note": "[Cpd 33, 2-(1-(4-((3-(4-((1,1-Dioxidotetrahydro-2H-thiopyran-4-yl)oxy)-2-methylphenyl)benzo[b]thiophen-5-yl)methoxy)phenyl)-3-oxocyclobutyl)acetic acid]", "EC50": 15},
      {"smiles": "Cc1cc(OC2CCOCC2)ccc1-c1csc2ccc(COc3ccc(C4(CC(=O)O)CC(=O)C4)cc3)cc12", "note": "[Cpd 34, 2-(1-(4-((3-(2-Methyl-4-((tetrahydro-2H-pyran-4-yl)oxy)phenyl)benzo[b]thiophen-5-yl)methoxy)phenyl)-3-oxocyclobutyl)acetic acid]", "EC50": 25},
      {"smiles": "CCOCCOc1ccc(-c2csc3ccc(COc4ccc([C@]5(CC(=O)O)C[C@@H](O)C5)cc4)cc23)c(C)c1", "note": "[Cpd 35]", "EC50": 26},
      {"smiles": "Cc1cc(OC2CCS(=O)(=O)CC2)ccc1-c1csc2ccc(COc3ccc([C@]4(CC(=O)O)C[C@@H](O)C4)cc3)cc12", "note": "[Cpd 36, 2-((1r,3r)-1-(4-((3-(4-((1,1-Dioxidotetrahydro-2H-thiopyran-4-yl)oxy)-2-methylphenyl)benzo[b]thiophen-5-yl)methoxy)phenyl)-3-hydroxycyclobutyl)acetic acid]", "EC50": 43},
      {"smiles": "Cc1cc(OC2CCOCC2)ccc1-c1csc2ccc(COc3ccc([C@]4(CC(=O)O)C[C@@H](O)C4)cc3)cc12", "note": "[Cpd 37, 2-((1r,3r)-3-Hydroxy-1-(4-((3-(2-methyl-4-((tetrahydro-2H-pyran-4-yl)oxy)phenyl)benzo[b]thiophen-5-yl)methoxy)phenyl)cyclobutyl)acetic acid]", "EC50": 17},
      {"smiles": "Cc1ncccc1-c1csc2ccc(COc3ccc(C4(CC(=O)O)CC(=O)C4)cc3)cc12", "note": "[Cpd 38, 2-(1-(4-((3-(2-Methylpyridin-3-yl)benzo[b]thiophen-5-yl)methoxy)phenyl)-3-oxocyclobutyl)acetic acid]", "EC50": 19},
      {"smiles": "Cc1ncccc1-c1csc2ccc(COc3ccc([C@]4(CC(=O)O)C[C@@H](O)C4)cc3)cc12", "note": "[Cpd 39]", "EC50": 46},
      {"smiles": "Cc1cc(N2CC3(CCS3(=O)=O)C2)ccc1-c1csc2ccc(COc3ccc(C4(CC(=O)O)CC(=O)C4)cc3)cc12", "note": "[Cpd 40, 2-(1-(4-((3-(4-(1,1-Dioxido-1-thia-6-azaspiro[3.3]heptan-6-yl)-2-methylphenyl)benzo[b]thiophen-5-yl)methoxy)phenyl)-3-oxocyclobutyl)acetic acid]", "EC50": 15},
      {"smiles": "CC#C[C@@H](CC(=O)O)c1ccc(OCc2ccc3scc(-c4cc(S(C)(=O)=O)ccc4C)c3c2)cc1", "note": "[Cpd 41, (3S)-3-(4-((3-(2-Methyl-5-(methylsulfonyl)phenyl)benzo[b]thiophen-5-yl)methoxy)phenyl)hex-4-ynoic acid]", "EC50": 21},
      {"smiles": "CC#C[C@@H](CC(=O)O)c1ccc(OCc2ccc3scc(-c4ccc(S(C)(=O)=O)cc4C)c3c2)cc1", "note": "[Cpd 42, (3S)-3-(4-((3-(2-Methyl-4-(methylsulfonyl)phenyl)benzo[b]thiophen-5-yl)methoxy)phenyl)hex-4-ynoic acid]", "EC50": 12},
      {"smiles": "CC#C[C@@H](CC(=O)O)c1ccc(OCc2ccc3scc(-c4cc(NS(C)(=O)=O)ccc4C)c3c2)cc1", "note": "[Cpd 43, (3S)-3-(4-((3-(2-Methyl-5-(methylsulfonamido)phenyl)benzo[b]thiophen-5-yl)methoxy)phenyl)hex-4-ynoic acid]", "EC50": 31},
      {"smiles": "CC#C[C@@H](CC(=O)O)c1ccc(OCc2ccc3scc(-c4c(C)cccc4NS(C)(=O)=O)c3c2)cc1", "note": "[Cpd 44, (3S)-3-(4-((3-(2-Methyl-6-(methylsulfonamido)phenyl)benzo[b]thiophen-5-yl)methoxy)phenyl)hex-4-ynoic acid]", "EC50": 22},
      {"smiles": "CC#CC(CC(=O)O)c1ccc(OCc2ccc3scc(-c4ccccc4C)c3c2)nc1", "note": "(stereo not shown) [Cpd 45, 3-(6-((3-(2-Methylphenyl)benzo[b]thiophen-5-yl)methoxy)pyridin-3-yl)hex-4-ynoic acid]", "EC50": 13}
    ]}
  ]
}
